# Reference: PubChem BioAssay (NCI)
#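 Assay format: 96-well plates, 48-hour exposure. TGI: concentration producing complete growth inhibition.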
# Assays:
# Assay in all cases: DTP human tumour cell line panel, 48 h
# 786-0 renal = test system: 786-0 renal
# CAKI-1 renal = test system: CAKI-1 renal
# TK-10 renal = test system: TK-10 renal
# SK-MEL-28 melanoma = test system: SK-MEL-28 melanoma
# OVCAR-8 ovarian = test system: OVCAR-8 ovarian
# OVCAR-5 ovarian = test system: OVCAR-5 ovarian
# SK-MEL-5 melanoma = test system: SK-MEL-5 melanoma
# ACHN renal = test system: ACHN renal
# DMS 114 small cell lung = test system: DMS 114 small cell lung
# SF-539 CNS = test system: SF-539 CNS
# DLD-1 colon = test system: DLD-1 colon
# M19-MEL melanoma = test system: M19-MEL melanoma
# SK-MEL-2 melanoma = test system: SK-MEL-2 melanoma
# A498 renal = test system: A498 renal
# DMS 273 small cell lung = test system: DMS 273 small cell lung
# HCT-15 colon = test system: HCT-15 colon
# SF-268 CNS = test system: SF-268 CNS
# SN12C renal = test system: SN12C renal
# RXF 393 renal = test system: RXF 393 renal
# NCI-H460 lung = test system: NCI-H460 lung
# HCT-116 colon = test system: HCT-116 colon
# COLO 205 colon = test system: COLO 205 colon
# U251 CNS = test system: U251 CNS
# SF-295 CNS = test system: SF-295 CNS
# SW-620 colon = test system: SW-620 colon
# SNB-78 CNS = test system: SNB-78 CNS
# LXFL 529 NSCLC = test system: LXFL 529 NSCLC
# SNB-75 CNS = test system: SNB-75 CNS
# IGROV1 ovarian = test system: IGROV1 ovarian
# A549 NSCLC = test system: A549 NSCLC
# MOLT-4 leukemia = test system: MOLT-4 leukemia
# HCC-2998 colon = test system: HCC-2998 colon
# MALME-3M melanoma = test system: MALME-3M melanoma
# LOX IMVI melanoma = test system: LOX IMVI melanoma
# KM20L2 colon = test system: KM20L2 colon
# CCRF-CEM leukemia = test system: CCRF-CEM leukemia
# NCI-H522 lung = test system: NCI-H522 lung
# UACC-257 melanoma = test system: UACC-257 melanoma
# UACC-62 melanoma = test system: UACC-62 melanoma
# EKVX NSCLC = test system: EKVX NSCLC
# SK-OV-3 ovarian = test system: SK-OV-3 ovarian
# NCI-H226 lung = test system: NCI-H226 lung
# XF 498 CNS = test system: XF 498 CNS
# HT29 colon = test system: HT29 colon
# OVCAR-3 ovarian = test system: OVCAR-3 ovarian
# HOP-92 NSCLC = test system: HOP-92 NSCLC
# SNB-19 CNS = test system: SNB-19 CNS
# M14 melanoma = test system: M14 melanoma
# HOP-18 NSCLC = test system: HOP-18 NSCLC
# UO-31 renal = test system: UO-31 renal
# RPMI-8226 leukemia = test system: RPMI-8226 leukemia
# NCI-H23 lung = test system: NCI-H23 lung
# HL-60(TB) leukemia = test system: HL-60(TB) leukemia
# HOP-62 NSCLC = test system: HOP-62 NSCLC
# KM12 colon = test system: KM12 colon
# K-562 leukemia = test system: K-562 leukemia
# OVCAR-4 ovarian = test system: OVCAR-4 ovarian
structure (smiles),measurement,setting,value
Cc1c(C(=O)/C=C/c2ccccc2O)c(=O)n(-c2ccccc2)n1C,TGI,786-0 renal,70 µM
same,TGI,CAKI-1 renal,73.8 µM
same,TGI,TK-10 renal,> 100 µM
same,TGI,SK-MEL-28 melanoma,> 100 µM
same,TGI,OVCAR-8 ovarian,40.7 µM
same,TGI,OVCAR-5 ovarian,> 100 µM
same,TGI,SK-MEL-5 melanoma,28.6 µM
same,TGI,ACHN renal,45.2 µM
same,TGI,DMS 114 small cell lung,> 100 µM
same,TGI,SF-539 CNS,55.5 µM
same,TGI,DLD-1 colon,27.9 µM
same,TGI,M19-MEL melanoma,74.6 µM
same,TGI,SK-MEL-2 melanoma,38.4 µM
same,TGI,A498 renal,90 µM
same,TGI,DMS 273 small cell lung,> 100 µM
same,TGI,HCT-15 colon,60.5 µM
same,TGI,SF-268 CNS,> 100 µM
same,TGI,SN12C renal,52.6 µM
same,TGI,RXF 393 renal,50.8 µM
same,TGI,NCI-H460 lung,53.3 µM
same,TGI,HCT-116 colon,34.6 µM
same,TGI,COLO 205 colon,70.8 µM
same,TGI,U251 CNS,35.9 µM
same,TGI,SF-295 CNS,54.9 µM
same,TGI,SW-620 colon,35.5 µM
same,TGI,SNB-78 CNS,> 100 µM
same,TGI,LXFL 529 NSCLC,37.5 µM
same,TGI,SNB-75 CNS,> 100 µM
same,TGI,IGROV1 ovarian,> 100 µM
same,TGI,A549 NSCLC,> 100 µM
same,TGI,MOLT-4 leukemia,63.2 µM
same,TGI,HCC-2998 colon,29.5 µM
same,TGI,MALME-3M melanoma,70.7 µM
same,TGI,LOX IMVI melanoma,45.9 µM
same,TGI,KM20L2 colon,> 100 µM
same,TGI,CCRF-CEM leukemia,86.9 µM
same,TGI,NCI-H522 lung,47.5 µM
same,TGI,UACC-257 melanoma,89.7 µM
same,TGI,UACC-62 melanoma,> 100 µM
same,TGI,EKVX NSCLC,> 100 µM
same,TGI,SK-OV-3 ovarian,> 100 µM
same,TGI,NCI-H226 lung,64.6 µM
same,TGI,XF 498 CNS,46.3 µM
same,TGI,HT29 colon,> 100 µM
same,TGI,OVCAR-3 ovarian,> 100 µM
same,TGI,HOP-92 NSCLC,64.6 µM
same,TGI,SNB-19 CNS,> 100 µM
CC(=O)OC1CC2C(C)(C)C(=O)C=C[C@]2(C)C2CCC3(C)C(=CC(=O)C3c3ccoc3)[C@]12C (stereo partly specified),TGI,786-0 renal,31.1 µM
same,TGI,M14 melanoma,61.7 µM
same,TGI,CAKI-1 renal,> 100 µM
same,TGI,HOP-18 NSCLC,33.8 µM
same,TGI,TK-10 renal,30 µM
same,TGI,SK-MEL-28 melanoma,32.6 µM
same,TGI,OVCAR-8 ovarian,41 µM
same,TGI,UO-31 renal,33 µM
same,TGI,OVCAR-5 ovarian,37.8 µM
same,TGI,SK-MEL-5 melanoma,26.4 µM
same,TGI,ACHN renal,40.1 µM
same,TGI,DMS 114 small cell lung,27.6 µM
same,TGI,SF-539 CNS,31.2 µM
same,TGI,RPMI-8226 leukemia,36.1 µM
same,TGI,DLD-1 colon,31 µM
same,TGI,M19-MEL melanoma,33.5 µM
same,TGI,NCI-H23 lung,29.5 µM
same,TGI,SK-MEL-2 melanoma,34.5 µM
same,TGI,A498 renal,33.9 µM
same,TGI,HCT-15 colon,26.1 µM
same,TGI,HL-60(TB) leukemia,34.1 µM
same,TGI,SF-268 CNS,33.1 µM
same,TGI,SN12C renal,32.5 µM
same,TGI,HOP-62 NSCLC,31.1 µM
same,TGI,RXF 393 renal,10.1 µM
same,TGI,NCI-H460 lung,34.1 µM
same,TGI,HCT-116 colon,24.9 µM
same,TGI,COLO 205 colon,34.6 µM
same,TGI,SF-295 CNS,28.7 µM
same,TGI,SW-620 colon,26 µM
same,TGI,SNB-78 CNS,> 100 µM
same,TGI,LXFL 529 NSCLC,74.2 µM
same,TGI,SNB-75 CNS,36.1 µM
same,TGI,IGROV1 ovarian,57.9 µM
same,TGI,A549 NSCLC,41 µM
same,TGI,MOLT-4 leukemia,34 µM
same,TGI,HCC-2998 colon,26 µM
same,TGI,MALME-3M melanoma,34.4 µM
same,TGI,LOX IMVI melanoma,31.4 µM
same,TGI,KM20L2 colon,28.2 µM
same,TGI,CCRF-CEM leukemia,30 µM
same,TGI,KM12 colon,35.5 µM
same,TGI,K-562 leukemia,> 100 µM
same,TGI,UACC-257 melanoma,48.2 µM
same,TGI,UACC-62 melanoma,31.6 µM
same,TGI,EKVX NSCLC,37.7 µM
same,TGI,OVCAR-4 ovarian,50.5 µM
same,TGI,SK-OV-3 ovarian,35.6 µM
same,TGI,NCI-H226 lung,35.6 µM
same,TGI,XF 498 CNS,42.8 µM
same,TGI,HT29 colon,32.1 µM
same,TGI,OVCAR-3 ovarian,25.8 µM
same,TGI,HOP-92 NSCLC,45.6 µM
same,TGI,SNB-19 CNS,29.2 µM
